From patent US20230118152A1, “FORMS OF 5-({[2-AMINO-3-(4-CARBAMOYL-2,6-DIMETHYL-PHENYL)-PROPIONYL]-[1-(4-PHENYL-1H-IMIDAZOL-2-YL)-ETHYL]-AMINO}-METHYL)-2-METHOXY-BENZOIC ACID” (Allergan Holdings Unlimited Company, priority 2020, published 2023)

Assay: Slurry experiments in water (physical form stability)
Type: physicochemical
Description: Form H3 may be formed by slurrying Form A in water. Form H3 may convert back to Form A with some minor amorphous contents within some time, and completely convert to amorphous phase upon further slurrying within further time.
Form H3 was prepared by slurry of Form A in water upon stirring. Form H3 converted back to Form A with some minor amorphous content within 2 days, and completely converted to amorphous phase upon slurry within 8 days. After additional 7 days (i.e. day 15 of slurry experiments), the amorphous phase converted further to Form D (tetrahydrate) with high crystallinity.

Row | Structure (SMILES) | solid form conversion when suspended in water (suspended in water, trihydrate form (H3) and tetrahydrate (Form D)) | time for complete conversion to amorphous phase (slurry in water upon stirring) | time for conversion back to Form A with some minor amorphous content (slurry in water upon stirring)
1 | COc1ccc(CN(C(=O)C(N)Cc2c(C)cc(C(N)=O)cc2C)C(C)c2nc(-c3ccccc3)c[nH]2)cc1C(=O)O (stereo not drawn) [Form A, 5-({[2-Amino-3-(4-carbamoyl-2,6-dimethyl-phenyl)-propionyl]-[1-(4-phenyl-1H-imidazol-2-yl)-ethyl]-amino}-methyl)-2-methoxy-benzoic acid] | converts to hydrated crystalline forms |  | 
2 | COc1ccc(CN(C(=O)C(N)Cc2c(C)cc(C(N)=O)cc2C)C(C)c2nc(-c3ccccc3)c[nH]2)cc1C(=O)O (stereo not drawn) [Form H3, 5-({[2-amino-3-(4-carbamoyl-2,6-dimethyl-phenyl)-propionyl]-[1-(4-phenyl-1H-imidazol-2-yl)-ethyl]-amino}-methyl)-2-methoxy-benzoic acid] |  | ≤ 8 days | ≤ 2 days
